Source: patent US20110207691A1, “COBALAMIN COMPOSITIONS FOR THE TREATMENT OF CANCER” (BEBAAS, INC., priority 2006, published 2011)
Values joined by “and” are separate entries in the source; they are usually repeats but may differ in a detail not shown here. Equal entries are not always repeated.

Legend:
[1] = tested on: BD-MB231 breast cancer cells; experiment: Cell survival count after treatment, BD-MB231 breast cancer cells; format: cell-based; conditions: cultures grown for 48 hours, then counted
Description: Cell cultures were grown and maintained using standard protocols for the respective cell line. Suitable culturing methods are described in, for example, Cancer Cell Culture: Method and Protocols (Methods in Molecular Medicine) Langdon (Ed) Humana Press, 2003 and General Techniques of Cell Culture (Handbooks in Practical Animal Cell Biology) Harrison and Rae, Cambridge University Press, 2005. Cultures were grown for 48 hours and subsequently counted to determine the number surviving after treatment with hydroxycobalamin, methylcobalamin or adenosylcobalamin and the aforementioned cobalamin analogs in combination with a nitric oxide-cobalamin complex. Determination of cell survival can be accomplished using, for example, a hemocytometer and Trypan Blue staining. […] Total number of cells can be determined living and dead cells can be determined and treatments compared.

[2] = tested on: WM9 melanoma cells; conditions: cited from earlier work

Row | Compound | number of surviving cells (mean) [1] | effect on WM9 melanoma cells [2]
1 | C/C1=C2/[N-][C@H]([C@H](CC(N)=O)[C@@]2(C)CCC(=O)NC[C@@H](C)OP(=O)([O-])O[C@H]2[C@@H](O)[C@@H](n3cnc4cc(C)c(C)cc43)O[C@@H]2CO)[C@]2(C)N=C(/C(C)=C3N=C(/C=C4N=C1[C@@H](CCC(N)=O)C\4(C)C)[C@@H](CCC(N)=O)[C@]\3(C)CC(N)=O)[C@@H](CCC(N)=O)[C@]2(C)CC(N)=O.[Co+3].[OH-] [hydroxycobalamin] | 472 and 729 and 728 | 
2 | nitrosylcobalamin |  | anti-proliferative effect
